# Test system: Platelet Activating Factor (PAF)-induced bronchoconstriction
# Assay: Effect on Bronchoconstriction Induced by Platelet Activating Factor (PAF) in Guinea Pigs (Konzett-Rossler method)
# Format: in vivo, Male Hartley guinea pigs
# Conditions: guinea pig; drug 10 mg/Kg orally 1 hour before PAF (1 μg/Kg, i.v.); recorded for 15 minutes
# Procedure: Effect on Bronchoconstriction Induced by Platelet Activating Factor (PAF) in Guinea Pigs
# Male Hartley guinea pigs (body weight 500 g) were used. The bronchoconstriction reaction in the guinea pig which has intravenously received PAF (1 μg/Kg) was measured by the Konzett-Rossler method. The trachea of the guinea pig with its back fixed was incised under anesthesia condition with urethane (intraperitoneal injection, 1.50 g/Kg) and connected with an artificial respirator via a cannula. The branch of the tracheal cannula was connected with a transducer (7020 type, Ugobasile). Air was sent to the trachea at the volume of 3-7 ml/stroke, at the stroke of 70 strokes/min. at load pressure of 10 cm H2 O to lung and overflowed air volume was recorded with Rectegraph (Recte-Hori-8s, Sanei Sokuki) via the transducer. After the guinea pig was treated with galamine (1 mg/Kg, i.v.), PAF (1 μg/Kg) dissolved in a physiological saline solution was administered to the guinea pig via a jugular venous cannula and the bronchoconstriction reaction induced thereby was recorded for 15 minutes. The drug (10 mg/Kg) suspended in a 5% gum arabic solution was administered orally 1 hour before the injection of PAF.
row,Structure (SMILES),Inhibition (%) of PAF-induced bronchoconstriction [%]
1,"NS(=O)(=O)CC1(COc2ccc3nccn3n2)CCC1 [Example 3, 6-[(2,2-trimethylene-3-sulfamoylpropyl)oxy]imidazo[1,2-b]pyridazine]",58
2,"NS(=O)(=O)CC1(CSc2ccc3nccn3n2)CCC1 [Example 13, 6-[(2,2-trimethylene-3-sulfamoylpropyl)thio]imidazo[1,2-b]pyridazine]",40
3,"NS(=O)(=O)CC1(COc2ccc3nccn3n2)CCCCC1 [Example 1, 6-[(2,2-pentamethylene-3-sulfamoylpropyl)oxy]imidazo[1,2-b]pyridazine]",72
4,"NS(=O)(=O)CC1(COc2ccc3nccn3n2)CCCC1 [Example 2, 6-[(2,2-tetramethylene-3-sulfamoylpropyl)oxy]imidazo[1,2-b]pyridazine]",78
5,"NS(=O)(=O)CC1(COc2ccc3nccn3n2)COC1 [Example 9, 6-[[2,2-(2-oxatrimethylene)-3sulfamoylpropyl]oxy]imidazo[1,2-b]pyridazine]",51
6,"NS(=O)(=O)CC1(COc2ccc3nccn3n2)CC1 [Example 4, 6-[(2,2-dimethylene-3-sulfamoylpropyl)oxy]imidazo[1,2-b]pyridazine]",48

# — US5145850A, “Imidazopyridazines, their production and use” (Takeda Chemical Industries, Ltd., priority 1990, dated 1992)
